Laboratory results taken from patent US20220128542A1, “TREATMENT EFFICIENCY EVALUATION” (TX MEDIC AB, priority 2019, published 2022).

Key:
[1] = tested on: Human umbilical vein endothelial cells (HUVECs); assay: Gene expression array and pathway/upstream regulator analysis in HUVECs (Example 2); format: cell-based; details: for differentially expressed genes: HUVEC
Method: (§1) For each cell line, n=8×25 cm^2 culture flasks were set up. Two flasks were harvested for each cell type on the day of treatment (24 hours after seeding). This represents the Day0 time point. From the remaining flasks, three flasks were treated with Control Medium and three were treated with Culture Medium (CM) containing LMW-DS to give a final concentration of 0.01 mg/ml. Cells from the treated flasks were collected after 48 hours. Therefore the collected data represent (a) untreated cells (Day0 Controls and Day2 Controls) and (b) cells treated with LMW-DS for 48 hours (Day2 LMW-DS treated).
(§2) 25 cm^2 flasks were coated by adding 2 ml per flask of a solution of 50 μg/ml poly-d-lysine in Hank's balanced salt solution (HBSS) and incubating overnight at 37° C. in the dark. Flasks were washed with cell culture water and air-dried for 30 min in the dark. Flasks were coated by adding 1 ml per flask of a solution of 25 μg/ml laminin in phosphate-buffered saline (PBS) and incubating for 2 hour at 37° C. in the dark. The laminin flasks were washed with PBS three times before plating cells.
Medium 200+Large Vessel Endothelial Supplement (M200+LVES) additive (1:50) was prepared and pre-warmed to 37° C. Cells were thawed in a 37° C. water bath for no longer than 2 min and gently transferred into a 50 ml tube containing 20 ml Dulbecco's Modified Eagle Medium, Nutrient Mixture F-12 (DMEM-F12). The cell suspension was mixed by inverting the tube carefully twice. Cells were spun at 400×g for 10 minutes. Supernatant removed and cells were re-suspended in 10 ml of culture media (M200+LVES additive).
Cells were counted with the Cellometer. 1,000,000 cells/flask were seeded in 25 cm^2 flasks (n=8) and medium was topped up to a total of 5 ml per flask. Cells were incubated at 37° C. with 5% CO2. Cells were allowed to settle for 24 hours before LMW-DS treatment.
(§3) A fresh 100× LMW-DS stock (1.0 mg/ml) was prepared in sterile DMEM-F12. The concentrated drug stock was sterile filtered and added to the respective culture media (19.6 ml CM and 0.4 ml LMW-DS stock solution). The Control was made using 19.6 ml CM and 0.4 ml of DMEM-F12. LMW-DS and CM were added to the respective flasks (5 ml each) to reach the 0.01 mg/ml concentration of LMW-DS in each dish with a total of 10 ml CM each.
(§4) CM was aspirated into a clean and labelled 15 ml Falcon tube. The flasks (without culture medium) were placed into the −80° C. freezer for 30 minutes. The CM in the Falcon tubes was spun at 3000×g for 5 minutes. Supernatant was removed and the small pellet was re-suspended in 2.5 ml Trizol:Water (4:1) solution at room temperature (RT, ˜22° C.).
(§5) The frozen flasks were removed one-by one from the freezer and the Trizol-Water from the appropriate tubes was moved to the flask. Flasks were left at RT for 5 minutes before the content was aspirated back into the 15 ml Falcon tube (after washing the bottom of the flask with the solution thoroughly). The flasks were inspected under the microscope to ensure full removal of cells. The collected lysates in the 15 ml Falcon tubes were placed into the −80° C. freezer.
(§6) Falcon tubes containing the homogenates were removed from the freezer and stored for 5 minutes at RT to permit the complete dissociation of nucleoprotein complexes.
(§7) Two aliquots of 1 ml lysate were removed from each sample and 200 μl of chloroform was added to each (0.2 ml of chloroform per 1 ml of TRIzol Reagent used during the cell lysis step) and the tube was shaken vigorously. Samples were stored at RT for 2-3 minutes and subsequently centrifuged at 12,000×g for 15 minutes at 4° C.
The mixture separated into three layers: a lower red phenol-chloroform phase, an interphase and a colorless upper aqueous phase. The RNA remained in the top aqueous phase, DNA in the white middle (interphase) phase and protein in the pink bottom (organic) phase. The top ¾ of the aqueous phase was transferred to a new clean Eppendorf tube. […]

Mouse cortical neurons = assay: Gene expression array and pathway analysis in cortical neurons (Example 2); format: cell-based; details: for differentially expressed genes: cortical neuron section (printed motor neurons)
Method: as §1, §2
Medium was prepared by adding 10 ml B-27 Serum-Free Supplement and 2.5 ml GlutaMAX™-I Supplement to 500 ml of Neurobasal medium. The medium was pre-warmed to 37° C. Cells from 12 vials were thawed sequentially in a 37° C. water bath for no longer than 2 min and gently transferred into a 15 ml tube. 9 ml of medium was gently added drop-wise to each. The cell suspension was mixed by inverting the tubes carefully twice.
The cells were centrifuged for 5 minutes at 200×g. Supernatant was removed (to the last 0.5 ml) and cells were gently re-suspended by trituration. The cells from the 12 vials were mixed and distributed equally into the previously coated 25 cm^2 flasks (n=8). Cells were incubated at 37° C. with 5% CO2 for 24 hours.
as §3, §4, §5, §6, §7
The mixture separated into three layers: a lower red phenol-chloroform phase, an interphase and a colorless upper aqueous phase. The RNA remained in the top aqueous phase, DNA in the white middle (interphase) phase and protein in the pink bottom (organic) phase. The top ¾ of the aqueous phase was transferred to a new clean Eppendorf tube.
The RNA was precipitated from the aqueous phase by adding an equal amount of 100% ethanol. […]

[2] = D0 control vs D2 LMW-DS treated, 0.01 mg/ml
[3] = cortical neurons, 0.01 mg/ml, 48 hours

Substance: sodium salt of dextran sulfate [LMW-DS]
- differentially expressed genes [1, 2]: 1779 genes
- differentially expressed genes ([1]; D2 control vs D2 LMW-DS treated, 0.01 mg/ml): 76 genes
- cell adhesion ([1]; HUVECs): not affected
- number of genes: no effect / abolished nutrient effect ([1]; HUVECs, 0.01 mg/ml, 48 hours): 67
- number of genes: no effect / total ([1]; HUVECs, 0.01 mg/ml, 48 hours): 67
- number of genes: significant downregulation / abolished nutrient effect ([1]; HUVECs, 0.01 mg/ml, 48 hours): 4
- number of genes: significant downregulation / enhanced response to nutrients ([1]; HUVECs, 0.01 mg/ml, 48 hours): 120
- number of genes: significant downregulation / not different from control ([1]; HUVECs, 0.01 mg/ml, 48 hours): 167
- number of genes: significant downregulation / total ([1]; HUVECs, 0.01 mg/ml, 48 hours): 291
- number of genes: significant upregulation / abolished nutrient effect ([1]; HUVECs, 0.01 mg/ml, 48 hours): 11
- number of genes: significant upregulation / enhanced response to nutrients ([1]; HUVECs, 0.01 mg/ml, 48 hours): 229
- number of genes: significant upregulation / not different from control ([1]; HUVECs, 0.01 mg/ml, 48 hours): 1326
- number of genes: significant upregulation / total ([1]; HUVECs, 0.01 mg/ml, 48 hours): 1566
- number of genes: total / abolished nutrient effect ([1]; HUVECs, 0.01 mg/ml, 48 hours): 82
- number of genes: total / enhanced response to nutrients ([1]; HUVECs, 0.01 mg/ml, 48 hours): 349
- number of genes: total / not different from control ([1]; HUVECs, 0.01 mg/ml, 48 hours): 1493
- number of genes: total / total ([1]; HUVECs, 0.01 mg/ml, 48 hours): 1924
- differentially expressed genes (Mouse cortical neurons; [2]): 609 genes
- differentially expressed genes (Mouse cortical neurons; second comparison, printed as D0 control to D2 LMW-DS treated): 247 genes
- number of genes: no effect / abolished nutrient effect (Mouse cortical neurons; [3]): 572
- number of genes: no effect / new effect induced by LMW-DS (Mouse cortical neurons; [3]): 19
- number of genes: no effect / total (Mouse cortical neurons; [3]): 591
- number of genes: significant downregulation / abolished nutrient effect (Mouse cortical neurons; [3]): 7
- number of genes: significant downregulation / enhanced response to nutrients (Mouse cortical neurons; [3]): 158
- number of genes: significant downregulation / new effect induced by LMW-DS (Mouse cortical neurons; [3]): 22
- number of genes: significant downregulation / not different from control (Mouse cortical neurons; [3]): 95
- number of genes: significant downregulation / total (Mouse cortical neurons; [3]): 282
- number of genes: significant upregulation / abolished nutrient effect (Mouse cortical neurons; [3]): 33
- number of genes: significant upregulation / enhanced response to nutrients (Mouse cortical neurons; [3]): 43
- number of genes: significant upregulation / new effect induced by LMW-DS (Mouse cortical neurons; [3]): 7
- number of genes: significant upregulation / not different from control (Mouse cortical neurons; [3]): 221
- number of genes: significant upregulation / total (Mouse cortical neurons; [3]): 304
- number of genes: total / abolished nutrient effect (Mouse cortical neurons; [3]): 612
- number of genes: total / enhanced response to nutrients (Mouse cortical neurons; [3]): 612
- number of genes: total / new effect induced by LMW-DS (Mouse cortical neurons; [3]): 48
- number of genes: total / not different from control (Mouse cortical neurons; [3]): 316
- number of genes: total / total (Mouse cortical neurons; [3]): 1177
